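Interpolation was linear, between the two tested concentrations surrounding the appropriate level; five concentrations were tested over 48 hours in 96-well plates. GI50: concentration for 50% inhibition of growth.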 Active and inactive are the calls of the source. No stated cut-off is given here; in the data, active = GI50 up to about 1.1 µM and inactive = higher.
Tests used:
Assay in all cases: NCI-60 cell line screen, 48 h
LOX IMVI = system: LOX IMVI
NCI-H460 = system: NCI-H460
MDA-MB-231 = system: MDA-MB-231
CAKI-1 = system: CAKI-1
SF-295 = system: SF-295
MCF7 = system: MCF7
EKVX = system: EKVX
BT-549 = system: BT-549
Malme-3M = system: Malme-3M
MDA-MB-435 = system: MDA-MB-435
MDA-N = system: MDA-N
ACHN = system: ACHN
NCI/ADR-RES = system: NCI/ADR-RES
OVCAR-8 = system: OVCAR-8
UO-31 = system: UO-31
786-0 = system: 786-0
TK-10 = system: TK-10
K562 = system: K562
KM12 = system: KM12
UACC-62 = system: UACC-62
SW-620 = system: SW-620
HCC 2998 = system: HCC 2998
HT-29 = system: HT-29
SNB-75 = system: SNB-75
NCI-H226 = system: NCI-H226
Hs-578T = system: Hs-578T
OVCAR-3 = system: OVCAR-3
SK-MEL-5 = system: SK-MEL-5
NCI-H522 = system: NCI-H522
MOLT-4 = system: MOLT-4
PC-3 = system: PC-3
SK-MEL-28 = system: SK-MEL-28
HCT-116 = system: HCT-116
CCRF-CEM = system: CCRF-CEM
HCT-15 = system: HCT-15
HOP-62 = system: HOP-62
SK-MEL-2 = system: SK-MEL-2
UACC-257 = system: UACC-257
SNB-19 = system: SNB-19
COLO 205 = system: COLO 205
T47D = system: T47D
SK-OV-3 = system: SK-OV-3
IGROV-1 = system: IGROV-1
M14 = system: M14
A498 = system: A498
RXF 393 = system: RXF 393
A549 = system: A549
U-251 = system: U-251
DU-145 = system: DU-145
NCI-H23 = system: NCI-H23
OVCAR-5 = system: OVCAR-5
SF-539 = system: SF-539
RPMI-8226 = system: RPMI-8226
SF-268 = system: SF-268
OVCAR-4 = system: OVCAR-4

SMILES: CC(C)(C)OC(=O)CC(NC(=O)OC(C)(C)C)C(=O)NC(C(=O)O)C(O)c1ccccc1 (stereo not given)
- GI50 (LOX IMVI): > 100 µM (inactive)
- GI50 (NCI-H460): 69.7 µM (inactive)
- GI50 (MDA-MB-231): 65.2 µM (inactive)
- GI50 (CAKI-1): > 100 µM (inactive)
- GI50 (SF-295): > 100 µM (inactive)
- GI50 (MCF7): 37.6 µM (inactive)
- GI50 (EKVX): > 100 µM (inactive)
- GI50 (BT-549): > 100 µM (inactive)
- GI50 (Malme-3M): 90.4 µM (inactive)
- GI50 (MDA-MB-435): > 100 µM (inactive)
- GI50 (MDA-N): > 100 µM (inactive)
- GI50 (ACHN): > 100 µM (inactive)
- GI50 (NCI/ADR-RES): > 100 µM (inactive)
- GI50 (OVCAR-8): > 100 µM (inactive)
- GI50 (UO-31): > 100 µM (inactive)
- GI50 (786-0): > 100 µM (inactive)
- GI50 (TK-10): > 100 µM (inactive)
- GI50 (K562): 46.9 µM (inactive)
- GI50 (KM12): 97.7 µM (inactive)
- GI50 (UACC-62): 37.5 µM (inactive)
- GI50 (SW-620): 40.3 µM (inactive)
- GI50 (HCC 2998): 14.3 µM (inactive)
- GI50 (HT-29): 75.3 µM (inactive)
- GI50 (SNB-75): > 100 µM (inactive)
- GI50 (NCI-H226): 13.9 µM (inactive)
- GI50 (Hs-578T): 70.8 µM (inactive)
- GI50 (OVCAR-3): > 100 µM (inactive)
- GI50 (SK-MEL-5): 56 µM (inactive)
- GI50 (NCI-H522): > 100 µM (inactive)
- GI50 (MOLT-4): 32.4 µM (inactive)
- GI50 (PC-3): 91.4 µM (inactive)
- GI50 (SK-MEL-28): > 100 µM (inactive)
- GI50 (HCT-116): 79.1 µM (inactive)
- GI50 (CCRF-CEM): 51.4 µM (inactive)
- GI50 (HCT-15): > 100 µM
- GI50 (HOP-62): > 100 µM (inactive)
- GI50 (SK-MEL-2): > 100 µM (inactive)
- GI50 (UACC-257): > 100 µM (inactive)
- GI50 (SNB-19): > 100 µM (inactive)
- GI50 (COLO 205): > 100 µM (inactive)
- GI50 (T47D): 80.9 µM (inactive)
- GI50 (SK-OV-3): 41.7 µM (inactive)
- GI50 (IGROV-1): > 100 µM (inactive)
- GI50 (M14): > 100 µM (inactive)
- GI50 (A498): > 100 µM (inactive)
- GI50 (RXF 393): 57.9 µM (inactive)
- GI50 (A549): > 100 µM (inactive)
- GI50 (U-251): 77.6 µM (inactive)
- GI50 (DU-145): > 100 µM (inactive)
- GI50 (NCI-H23): > 100 µM (inactive)
- GI50 (OVCAR-5): > 100 µM (inactive)
- GI50 (SF-539): > 100 µM (inactive)
- GI50 (RPMI-8226): 70.1 µM (inactive)
- GI50 (SF-268): 50.2 µM (inactive)
- GI50 (OVCAR-4): > 100 µM (inactive)
